{
  "source": "paper PMC8187479",
  "about": "“Sugar phosphate activation of the stress sensor eIF2B” (Nature Communications, 2021)",
  "key": {"[1]": {"target": "T1, eIF2B in WT HEK293T lysate (Homo sapiens, UniProt P49770+Q14232+Q9UI10)", "T1 construct": "endogenous in cells; host or cells: HEK293T (wild type) lysate", "assay": "GEF activity assay with WT HEK293T lysate", "assay_type": "biochemical", "method": "Bodipy-FL-GDP-loaded eIF2 was used as a substrate for recombinant eIF2B. The assay was performed in 384-well plates. Reactions were read on a SpectraMax i3x plate reader (Molecular Devices) using the instrument’s Softmax Pro software with the following parameters: plate temperature = 25 °C; excitation wavelength = 485 nm (15 nm width); emission wavelength = 535 nm (25 nm width); read duration = 30 min at 45 s intervals. Data were analyzed in Prism. GDP release half-lives were calculated by fitting single-exponential decay curves.\nFor unbiased screening, MIDAS metabolite libraries at 10 mM stock concentration were dispensed into wells of the assay plate using an Echo Acoustic Liquid Handler (Labcyte). In a final assay volume of 10 μL/well, the following conditions were kept constant: 25 nM Bodipy-FL-GDP-loaded eIF2, 4 nM phospho-eIF2, 0.1 mM GDP, 1 mg/mL BSA, 1 nM eIF2B, 10 μM metabolite. A single well was run for each metabolite. For targeted experiments with recombinant wild-type and mutant eIF2Bα, the following conditions were used: 50 nM Bodipy-FL-GDP-loaded eIF2, 0.1 mM GDP, 1 mg/ml BSA, 20 nM eIF2B. For targeted experiments with HEK293T lysates, the following conditions were used: 50 nM Bodipy-FL-GDP-loaded eIF2, 0.1 mM GDP, 1 mg/ml BSA, 0.1 or 0.3 mg/ml lysates."}, "[2]": {"target": "T2, eIF2B decamer in eIF2Bα^V183F HEK293T lysate (Homo sapiens, UniProt P49770+Q14232+Q9UI10, V183F)", "T2 construct": "endogenous in cells", "T2 sequence (Q14232 whole entry V183F)": "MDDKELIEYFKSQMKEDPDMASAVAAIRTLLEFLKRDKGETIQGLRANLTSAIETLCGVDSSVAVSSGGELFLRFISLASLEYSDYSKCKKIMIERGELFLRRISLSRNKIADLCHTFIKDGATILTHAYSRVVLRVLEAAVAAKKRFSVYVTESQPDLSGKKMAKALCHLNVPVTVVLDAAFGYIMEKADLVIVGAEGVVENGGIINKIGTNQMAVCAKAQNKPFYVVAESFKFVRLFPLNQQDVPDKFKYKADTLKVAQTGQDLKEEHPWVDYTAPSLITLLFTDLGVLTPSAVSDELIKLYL", "T2 sequence (P49770 whole entry)": "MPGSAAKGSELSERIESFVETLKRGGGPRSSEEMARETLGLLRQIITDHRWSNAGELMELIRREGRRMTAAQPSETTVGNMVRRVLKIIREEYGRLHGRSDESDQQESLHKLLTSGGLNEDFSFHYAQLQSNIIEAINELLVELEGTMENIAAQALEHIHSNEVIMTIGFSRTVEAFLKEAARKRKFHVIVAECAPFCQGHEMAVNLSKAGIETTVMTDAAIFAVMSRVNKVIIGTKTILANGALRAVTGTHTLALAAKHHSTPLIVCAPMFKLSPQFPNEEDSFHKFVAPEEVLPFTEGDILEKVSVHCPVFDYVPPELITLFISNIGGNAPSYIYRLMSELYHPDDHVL", "T2 sequence (Q9UI10 whole entry)": "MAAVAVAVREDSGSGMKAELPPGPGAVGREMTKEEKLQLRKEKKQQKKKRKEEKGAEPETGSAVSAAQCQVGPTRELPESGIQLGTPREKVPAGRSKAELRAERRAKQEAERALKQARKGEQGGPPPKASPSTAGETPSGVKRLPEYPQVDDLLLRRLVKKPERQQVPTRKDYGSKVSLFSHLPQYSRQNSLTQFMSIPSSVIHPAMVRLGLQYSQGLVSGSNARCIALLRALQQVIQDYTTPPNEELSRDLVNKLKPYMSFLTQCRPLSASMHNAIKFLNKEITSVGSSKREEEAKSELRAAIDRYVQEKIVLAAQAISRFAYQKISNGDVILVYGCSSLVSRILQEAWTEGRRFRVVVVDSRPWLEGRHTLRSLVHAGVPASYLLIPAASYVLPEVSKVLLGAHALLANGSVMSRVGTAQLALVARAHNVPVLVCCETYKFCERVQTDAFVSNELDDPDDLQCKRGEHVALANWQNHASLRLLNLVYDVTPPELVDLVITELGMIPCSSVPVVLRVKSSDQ", "T2 sequence (Q9NR50 whole entry partner)": "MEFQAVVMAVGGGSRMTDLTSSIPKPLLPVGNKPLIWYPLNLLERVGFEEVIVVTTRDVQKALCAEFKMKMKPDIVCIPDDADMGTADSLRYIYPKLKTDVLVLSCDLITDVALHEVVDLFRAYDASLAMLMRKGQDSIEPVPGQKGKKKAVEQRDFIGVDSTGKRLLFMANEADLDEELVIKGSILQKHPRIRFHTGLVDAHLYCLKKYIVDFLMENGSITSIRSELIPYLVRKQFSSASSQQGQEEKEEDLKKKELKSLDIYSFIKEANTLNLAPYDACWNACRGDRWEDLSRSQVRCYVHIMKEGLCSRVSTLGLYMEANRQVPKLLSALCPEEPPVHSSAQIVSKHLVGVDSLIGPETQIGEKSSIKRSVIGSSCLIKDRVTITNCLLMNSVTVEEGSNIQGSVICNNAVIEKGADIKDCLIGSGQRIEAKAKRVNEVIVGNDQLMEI", "T2 sequence (Q13144 whole entry partner)": "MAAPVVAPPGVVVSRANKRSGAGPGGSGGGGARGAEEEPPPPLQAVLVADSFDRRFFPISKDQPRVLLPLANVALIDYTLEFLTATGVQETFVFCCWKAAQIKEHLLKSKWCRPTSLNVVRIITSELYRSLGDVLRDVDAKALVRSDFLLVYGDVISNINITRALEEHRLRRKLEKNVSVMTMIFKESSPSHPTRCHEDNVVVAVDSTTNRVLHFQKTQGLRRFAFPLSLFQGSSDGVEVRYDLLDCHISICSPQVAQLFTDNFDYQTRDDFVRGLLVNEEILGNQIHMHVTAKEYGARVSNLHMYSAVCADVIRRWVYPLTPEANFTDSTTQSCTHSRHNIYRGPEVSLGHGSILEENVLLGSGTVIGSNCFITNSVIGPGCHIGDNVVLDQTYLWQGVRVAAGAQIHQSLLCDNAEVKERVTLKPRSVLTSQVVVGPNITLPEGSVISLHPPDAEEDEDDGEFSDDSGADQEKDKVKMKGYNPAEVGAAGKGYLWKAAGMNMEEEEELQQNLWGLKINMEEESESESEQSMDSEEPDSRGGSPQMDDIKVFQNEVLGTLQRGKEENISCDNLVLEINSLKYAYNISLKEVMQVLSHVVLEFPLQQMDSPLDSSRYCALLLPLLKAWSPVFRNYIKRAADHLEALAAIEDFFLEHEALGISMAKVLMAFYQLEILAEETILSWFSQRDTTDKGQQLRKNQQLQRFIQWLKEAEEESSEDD", "assay": "Sucrose gradient centrifugation, eIF2B complex assembly, eIF2Bα V183F HEK293T lysate", "assay_type": "biochemical", "conditions": "500 nM ISRIB, 200 μM F6P", "method": "WT or eIF2Bα mutant HEK293T cells were harvested and lysed in 50 mM HEPES, 400 mM KCl, 1 mM DTT, 4 mM Mg(OAc)2, pH 7.5 + 0.5% Triton-X-100 + EDTA-free protease inhibitor cocktail (Roche) on ice for 30 min. Lysates were cleared by centrifugation at 48,000 × g, 4 °C for 30 min. 100 μL of each cleared lysate was loaded onto a 5–20% sucrose gradient prepared in a 13 × 51 mm ultracentrifuge tube using a Gradient Station (Biocomp) and centrifuged in a SW55 Ti rotor at 152,000 × g, 4 °C for 12 h. After centrifugation, 24 × 200 μL fractions were manually collected from the top to bottom of each gradient. Each fraction was subjected to methanol/chloroform precipitation and SDS-PAGE followed by Western Blot with the indicated antibodies. Blots were imaged on a ChemiDoc MP (Bio-Rad), and band intensities were quantified using the instrument’s Image Lab software. Each value was then divided by total intensity obtained across all fractions to determine percent enrichment of each subunit in each fraction."}, "eIF2Bα [3]": {"target": "T3, eIF2Bα (Homo sapiens, UniProt Q14232)", "T3 construct": "made in house; host or cells: E. coli BL21(DE3)", "T3 sequence (Q14232 1-305)": "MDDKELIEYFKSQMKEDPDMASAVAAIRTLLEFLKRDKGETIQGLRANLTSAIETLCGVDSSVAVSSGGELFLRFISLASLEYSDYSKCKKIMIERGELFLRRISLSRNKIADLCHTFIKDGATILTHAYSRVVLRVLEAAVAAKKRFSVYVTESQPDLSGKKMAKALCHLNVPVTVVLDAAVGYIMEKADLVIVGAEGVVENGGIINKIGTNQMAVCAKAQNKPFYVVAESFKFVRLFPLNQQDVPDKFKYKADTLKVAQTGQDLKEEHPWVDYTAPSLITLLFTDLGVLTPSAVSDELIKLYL", "assay": "MIDAS (mass spectrometry integrated with equilibrium dialysis) metabolite binding screen", "conditions": "eIF2Bα2; 50 μM per metabolite pool; 40 h dialysis at 4 °C", "method_in_brief": "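Hits called at Storey q < 0.1 on z-scores of PCA-corrected log2 fold change between protein and metabolite chambers, quantified by FIA-MS in triplicate.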"}, "eIF2Bα [4]": {"target": "T3, eIF2Bα", "assay": "Isothermal titration calorimetry, wild-type eIF2Bα", "assay_type": "binding", "method": "Interactions between recombinant protein and sugar phosphates were conducted with a MicroCal PEAQ-ITC (Malvern Panalytical Inc.). Experiments were performed in 25 mM HEPES, 150 mM NaCl, pH 7.5 at 20 °C. The sugar phosphate concentration in the syringe was 1 mM or 1.5 mM, and ~3.5 μL aliquots were injected into cells containing 300 μL eIF2Bα or eIF2B(βδγε) at a concentration of 20–30 μM. The final titration curves were fitted using MicroCal ITC data analysis software, assuming a single binding site per monomer."}},
  "data": [
    {"smiles": "O=C(CO)[C@@H](O)[C@H](O)[C@H](O)COP(=O)(O)O", "note": "[F6P, fructose-6-phosphate]", "values": [
      {"measurement": "effect on GEF activity of WT lysate", "setting": "[1]", "value": "stimulated"},
      {"measurement": "eIF2B decamer formation", "setting": "[2]", "value": "promoted decamer formation at comparable levels"},
      {"measurement": "MIDAS result (enrichment in the protein chamber / hit status)", "setting": "eIF2Bα [3]", "value": "not a MIDAS hit"},
      {"measurement": "Kd", "setting": "eIF2Bα [4]; ITC, wild-type eIF2Bα", "value": "9.4 ± 2.3", "unit": "µM"},
      {"measurement": "ITC binding isotherm, heat per mole of injectant", "setting": "eIF2Bα [4]; molar ratio 0.037369", "value": -31.84, "unit": "kJ/mol"},
      {"measurement": "ITC binding isotherm, heat per mole of injectant", "setting": "eIF2Bα [4]; molar ratio 0.225339", "value": -30.72, "unit": "kJ/mol"},
      {"measurement": "ITC binding isotherm, heat per mole of injectant", "setting": "eIF2Bα [4]; molar ratio 0.415168", "value": -28.3, "unit": "kJ/mol"},
      {"measurement": "ITC binding isotherm, heat per mole of injectant", "setting": "eIF2Bα [4]; molar ratio 0.606855", "value": -25.11, "unit": "kJ/mol"},
      {"measurement": "ITC binding isotherm, heat per mole of injectant", "setting": "eIF2Bα [4]; molar ratio 0.8004", "value": -21.13, "unit": "kJ/mol"},
      {"measurement": "ITC binding isotherm, heat per mole of injectant", "setting": "eIF2Bα [4]; molar ratio 0.995804", "value": -16.78, "unit": "kJ/mol"},
      {"measurement": "ITC binding isotherm, heat per mole of injectant", "setting": "eIF2Bα [4]; molar ratio 1.19307", "value": -12.71, "unit": "kJ/mol"},
      {"measurement": "ITC binding isotherm, heat per mole of injectant", "setting": "eIF2Bα [4]; molar ratio 1.39219", "value": -9.376, "unit": "kJ/mol"},
      {"measurement": "ITC binding isotherm, heat per mole of injectant", "setting": "eIF2Bα [4]; molar ratio 1.59317", "value": -6.891, "unit": "kJ/mol"},
      {"measurement": "ITC binding isotherm, heat per mole of injectant", "setting": "eIF2Bα [4]; molar ratio 1.796", "value": -5.117, "unit": "kJ/mol"},
      {"measurement": "ITC binding isotherm, heat per mole of injectant", "setting": "eIF2Bα [4]; molar ratio 2.0007", "value": -3.872, "unit": "kJ/mol"},
      {"measurement": "ITC binding isotherm, heat per mole of injectant", "setting": "eIF2Bα [4]; molar ratio 2.20725", "value": -2.99, "unit": "kJ/mol"},
      {"measurement": "ITC binding isotherm, heat per mole of injectant", "setting": "eIF2Bα [4]; molar ratio 2.41567", "value": -2.355, "unit": "kJ/mol"},
      {"measurement": "ITC binding isotherm, heat per mole of injectant", "setting": "eIF2Bα [4]; molar ratio 2.62594", "value": -1.889, "unit": "kJ/mol"},
      {"measurement": "ITC binding isotherm, heat per mole of injectant", "setting": "eIF2Bα [4]; molar ratio 2.83807", "value": -1.54, "unit": "kJ/mol"},
      {"measurement": "ITC binding isotherm, heat per mole of injectant", "setting": "eIF2Bα [4]; molar ratio 3.05206", "value": -1.273, "unit": "kJ/mol"},
      {"measurement": "ITC binding isotherm, heat per mole of injectant", "setting": "eIF2Bα [4]; molar ratio 3.2679", "value": -1.066, "unit": "kJ/mol"},
      {"measurement": "ITC binding isotherm, heat per mole of injectant", "setting": "eIF2Bα [4]; molar ratio 3.48561", "value": -0.9017, "unit": "kJ/mol"},
      {"measurement": "ITC binding isotherm, heat per mole of injectant", "setting": "eIF2Bα [4]; molar ratio 3.70517", "value": -0.77, "unit": "kJ/mol"}
    ]}
  ]
}
